Active and inactive are the calls of the source.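 The calls were made as follows: active = EC50 no more than a set limit of log units above the highest dose; inactive = the rest.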
Each compound was assayed against S. pyogenes SKKanGAS, kanamycin survival, BacTiterGlo, 6 h (assay: S. pyogenes SKKanGAS kanamycin growth inhibitors – SKKanGAS strain, luminescence, dose confirmation, streptokinase promoter inhibitor project, dose response (AID 1902);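 also: lower survival reflects blocked streptokinase promoter driving kanamycin resistance gene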).

SMILES	EC50
COc1ccc(OC)c(CCNC(=O)C(=O)Nc2ccc3nc4n(c(=O)c3c2)CCCCC4)c1	10.1 µM
CC(C)C[C@H](NC(=O)c1[nH]cnc1C(=O)N[C@@H](C)C(=O)OC(C)(C)C)C(=O)OCc1ccccc1	7.06 µM
COc1cc(/C=C/C(=O)OC2CC3CCC2(C)C3(C)C)ccc1O (configuration not stated)	7.08 µM
O=C(Nc1cccc(-c2ccc(N3CCOCC3)nn2)c1)c1ccccc1Cl	> 15 µM (inactive)
CCOC(=O)c1ccc(NC(=O)c2nc[nH]c2C(=O)N[C@@H](Cc2ccccc2)C(=O)OC(C)(C)C)cc1	3.17 µM
COc1ccc(N2CCN(C(=O)Cc3csc(NC(=O)Nc4ccccc4OC)n3)CC2)cc1	12.7 µM
Oc1nc(Nc2ccc(F)cc2)sc1/C=C1\C=Nc2ccccc21	8.88 µM
CCCCCCCCCCC(=O)NNC(=O)c1c(O)c2ccccc2n(CC)c1=O	0.185 µM
COc1cc(NS(=O)(=O)c2ccc3ccccc3c2)c2ncccc2c1	1.08 µM
CC1CC(C)CN(c2ncc3c(n2)CC(c2ccccc2Cl)CC3=O)C1 (configuration not stated)	4.33 µM
Cc1ccc(-n2sc3ccccc3c2=O)cc1	1.27 µM
O=S(=O)(NC(=NCc1ccccc1)c1ccccc1)c1ccc(Br)cc1	> 15 µM (inactive)
S=c1nc(SCc2ccccc2)[nH]c2ccccc12	3.19 µM
Clc1ccc(SCc2cc(Cl)nc(-c3ccccc3)n2)cc1	> 15 µM (inactive)
Nc1[nH]n2c(=O)cc(-c3ccccc3)nc2c1N=Nc1ccccc1	1.83 µM
CCCN(CCC)S(=O)(=O)c1ccc(C(=O)Nc2nnc(-c3cc(OC)cc(OC)c3)o2)cc1	0.192 µM
O=C(NNC(=O)c1cc(-c2ccccc2)nc2ccccc12)Nc1cccc(Cl)c1	3.87 µM
O=C(Oc1cccc2c(O)cccc12)c1ccccc1	> 15 µM (inactive)
O=C(NNC(=S)NC(=O)c1ccccc1)c1cccc([N+](=O)[O-])c1	5.82 µM
O=C(N/N=C/c1c(O)ccc2ccccc12)c1ccc(Br)o1	2.3 µM
Oc1ccc(/C=N/Nc2ccc3ccccc3c2)c(O)c1	7.53 µM
Cc1ccc(SC/C(O)=C(\C#N)c2nc3ccccc3s2)cc1	2.83 µM

SMILES	EC50
Cc1ccc(C(=O)/C=C/C(=O)c2ccc(C)cc2)cc1	3.61 µM
O=C(c1ccc2c3n(nc2c1)-c1ccccc1CO3)N1CCCCC1	9.38 µM
COc1cccc(NC(=S)NN=C2CCCCCC2)c1	1.77 µM
O=C1[C@H]2C(c3ccccc3)=NN(c3ccccc3)[C@H]2C(=O)N1c1ccccc1	0.485 µM
N#Cc1c(-c2ccccc2)nc(SCc2ccc(Cl)cc2)[nH]c1=O	6.47 µM
Cc1cc(C)c(C(=O)CC(=O)c2ccccc2Cl)c(O)c1	6.76 µM
Nc1nc(Nc2ccccc2)nc(NC2CCCCC2)c1[N+](=O)[O-]	5.57 µM
CCOc1ccccc1NC(=O)NCc1ccc2c(c1)OCO2	> 15 µM (inactive)
O=C(CSC(=S)N1CCOCC1)c1cc(Br)cc(Br)c1O	> 15 µM (inactive)
COc1cc(OC)cc(C(=O)NC(=S)N2CCN(c3ccc(C(F)(F)F)cc3[N+](=O)[O-])CC2)c1	1.28 µM
Cc1cccc(NC(=S)/N=C(\N)Nc2nc(C)c3ccc(C)cc3n2)c1	> 15 µM (inactive)
S=C(NCCSCc1ccc(Cl)cc1Cl)Nc1ccccc1	7.32 µM
COc1ccccc1N1CCN(Cc2nc(N)nc(Nc3ccc(C)c(Cl)c3)n2)CC1	7.99 µM
CCOC(=O)Cc1cc(=O)n2[nH]cc(-c3cccc(Br)c3)c2n1	3.56 µM
Cc1[nH]n(-c2ccccc2)c(=O)c1N=Nc1ccccc1O	0.582 µM
COc1ccc(-c2csc(NC(=O)c3ccc(C(C)(C)C)cc3)c2C(=O)O)cc1	1.21 µM
CC(=O)Nc1ccc(S(=O)(=O)N2CCN=C2SCc2ccc(C)cc2)cc1	> 15 µM (inactive)
COC(=O)c1ccc(C(=O)OC)c(NC(=O)CN(C)Cc2cccc(Cl)c2Cl)c1	7.7 µM
CCOc1cccc(/C=N/Nc2ccc(S(=O)(=O)N(CC)CC)cn2)c1O	2.94 µM
COc1cc(/C=N/Nc2ncnc3sc4c(c23)CCC4)ccc1O	2.11 µM
O=C(N/N=C/c1c(O)n(C2CCCCC2)c(=S)[nH]c1=O)c1ccccc1O	0.601 µM
CCOc1ccc(/C=N/NC(=S)NC2CC3CC2C2C=CCC32)cc1 (configuration not stated)	5.48 µM

SMILES	EC50
O=C(O)CN1C(=O)/C(=C\c2cc(Br)ccc2OCc2ccccc2Cl)SC1=S	2.08 µM
CC/C(=C/c1ccccc1)c1cccc2[nH]c3c(OC)cccc3c12	2.49 µM
O=C(Nc1ccc(OC(F)F)cc1)Nc1cccc(C(F)(F)F)c1	6.7 µM
Cc1cc(NC(=S)N(Cc2ccc(Cl)cc2)Cc2ccc(C(=O)O)cc2)ccc1Cl	6.93 µM
Cc1ccc(Sc2cc(C)nc(-c3ccccn3)n2)cc1	12.4 µM
C/C(=N\NC(=O)c1ccc(Cl)c(Cl)c1)c1ccc(Br)s1	0.563 µM
Cc1cccc(/C=C2\Sc3ccc(C(=O)N4CCC(C)CC4)cc3N(C)C2=O)c1	2.69 µM
O=C(Nc1nc(-c2cc(Cl)sc2Cl)cs1)c1cccs1	8.68 µM
Cc1[nH]n(-c2ccccc2)c(=O)c1/C=N\NC(=O)C1COc2ccccc2O1 (configuration not stated)	1.37 µM
COc1ccc(-c2oc(NC(=O)CCl)c(C#N)c2-c2ccc(OC)cc2)cc1	3.11 µM
c1ccc(-c2nc(C3CCCCC3)c3ccccc3n2)cc1	3.87 µM
CCc1ccc(OCC(=O)NC(NC(=S)Nc2ccc(C)cc2C)C(Cl)(Cl)Cl)cc1 (configuration not stated)	4.44 µM
N=c1ccn2c(n1)O[C@H]1[C@H](O)[C@@H](CO)O[C@H]12	4.89 µM
Nc1c(C(=O)Nc2nc3ccccc3s2)sc2nc(-c3cccs3)ccc12	6.67 µM
Cc1nn(C)c(Cl)c1CN1CCCC(C(=O)Nc2ccc(-c3cscn3)cc2)C1 (configuration not stated)	> 15 µM (inactive)
COc1cc(OC)c([C@H]2C=C(C)[C@H]3C[C@@H]2C3(C)C)c(OC)c1	2.6 µM
CC1(C)Oc2ccc3ccc(=O)oc3c2/C(=C/NNC(N)=S)C1=O	7.51 µM
CC(C)(C)c1nnc(N/N=C/c2cc(Br)ccc2O)n(N)c1=O	2.12 µM
CCCc1sc(N/N=C/c2ccccn2)nc1-c1ccc(Br)cc1	0.241 µM
O=C(COC(=O)c1ccccc1Br)Nc1nnc(-c2ccccc2)o1	0.689 µM
O=C(CSc1nnc(NC(=O)c2cccc(Cl)c2)s1)NCC1CCCO1 (configuration not stated)	> 15 µM (inactive)
COc1cc([N+](=O)[O-])cc(/C=N/NC(=O)c2cc(-c3ccccc3)nc3ccccc23)c1O	3.2 µM

SMILES	EC50
O=C(O)CCCN1C(=O)/C(=C/c2cn(-c3ccccc3)nc2-c2cccs2)SC1=S	2.72 µM
C/C(=N\N=C(/N)SC1CC(=O)N(c2ccc(Br)cc2)C1=O)c1cccs1 (configuration not stated)	5.03 µM
O=c1/c(=C\c2cccc(O)c2)sc2nc(-c3ccccc3)c(-c3ccccc3)n12	7.63 µM
COc1ccc(CCNC(=O)c2ccc(CNS(=O)(=O)c3ccc(C(C)(C)C)cc3)cc2)cc1OC	7 µM
CC(=O)Oc1c(I)cc(I)cc1C(=O)Nc1ccc(Cl)cc1	0.394 µM
O=C(NNc1nc2ccc(Cl)cc2s1)c1cc(-c2cccs2)nc2ccccc12	0.334 µM
Cc1cc(C)nc(N/N=C/c2cc(Br)ccc2O)n1	12.9 µM
CCCCn1c(CCCNC(=O)c2ccco2)nc2ccccc21	> 15 µM (inactive)
CCCSc1nsc(NC(=O)Nc2ccc(F)cc2F)n1	5.66 µM
Cc1nc(=S)c2c([nH]1)-c1ccccc1CC21CCCCC1	0.945 µM
CC(=O)OCC1=C(C(=O)O)N2C(=O)C(NC(=O)c3ccc(F)cc3)C2SC1 (configuration not stated)	2.9 µM
COc1cnc(-c2ccccn2)nc1Oc1ccccc1Cl	14.4 µM
O=C(NC(=S)NNC(=O)c1cccs1)c1ccco1	6.22 µM
O=C(Cc1ccccc1)NNC(=S)NC(=O)c1cccs1	3.83 µM
Cc1cccc(OCC(=O)Nc2ccc(C(=O)Nc3ccccc3C(=O)O)cc2)c1C	2.41 µM
Cc1nc(Nc2cnc(/C=C/c3cc(C(=O)Nc4cccc(C(F)(F)F)c4)ccc3C)cn2)cc(N2CCNCC2)n1	6.36 µM
CCN1/C(=C/C=C/c2oc3ccc(-c4ccccc4)cc3[n+]2CC)Oc2ccc(-c3ccccc3)cc21	2.07 µM
Cc1sc2nc(-c3ccccn3)[nH]c(=O)c2c1-c1ccccc1	1.28 µM
Cc1ccc(NC(=O)c2cc(N3C(=O)C=CC3=O)ccc2N2CCOCC2)cc1Cl	11.5 µM
Cc1noc(NS(=O)(=O)c2ccc(NC(=O)c3oc4ccc(Cl)cc4c3C)cc2)c1C	6.63 µM
COc1cccc(NP(=O)(Oc2ccc(Cl)cc2)Oc2ccc(Cl)cc2)c1	3.22 µM
CCOc1ccc(NC(=S)NNC(=S)Nc2cccc(C(F)(F)F)c2)cc1	> 15 µM (inactive)

SMILES	EC50
CC(C)N1CCc2c(sc(NC(=O)CCS(=O)(=O)c3ccccc3)c2C#N)C1	> 15 µM (inactive)
Nc1nc(-c2ccccn2)nc(N)c1Cc1ccc(Cl)cc1Cl	5.03 µM
COc1ccc(C(=O)Nc2cccc(-c3ccc(N4CCOCC4)nn3)c2)cc1	> 15 µM (inactive)
Cc1ccc(C)c(-c2nnc(NC(=O)CCS(=O)(=O)c3ccccc3)o2)c1	8.64 µM
Cc1csc2c(N3CCN(C(=O)Nc4ccc(Cl)c(Cl)c4)CC3)ncnc12	2.99 µM
CCC(C(=O)N1CCC(N2CCCCC2)CC1)n1nc(C)c2sc3ccccc3c2c1=O (configuration not stated)	> 15 µM (inactive)
CCn1nc(-c2ccccc2)nc2c(=O)n(C)c(=O)nc1-2	1.54 µM
CCOC(=O)C1=C(Cc2ccc(C)cc2)C(=O)c2ccccc2C1=O	4.64 µM
Oc1ccc(-c2nc3c4c(ncn3n2)-c2ccccc2CC42CCCC2)cc1	0.843 µM
CCCCCCCCCCCCN1[C@@H](CC(=O)O)c2cc(C(F)(F)F)ccc2S1(=O)=O	2.44 µM
CSCc1cc(N(C)c2ccccc2)nc(-c2ccccn2)n1	0.136 µM
Cc1nn(-c2ccc(Cl)cc2)c(Cl)c1/C=N/NC(=O)c1ccc(NS(=O)(=O)c2cccs2)cc1	2.06 µM
COc1cc(N=c2c([N+](=O)[O-])nn(-c3ccc4c(c3)OCCO4)n2O)cc(OC)c1	5.24 µM
Cc1cc(C)c2nc(NNC(=O)c3ccc(S(=O)(=O)N4CC(C)CC(C)C4)cc3)sc2c1 (configuration not stated)	0.815 µM
Cc1ccc(CN2CN(S(=O)(=O)c3cccs3)c3nc4ccccc4nc32)cc1	7.74 µM
COC(=O)[C@@]12CCCN1[C@H](c1ccc(-c3cccc(Cl)c3)c(OC)c1)[C@H]1C(=O)N(C)C(=O)[C@H]12	> 15 µM (inactive)
O=C(CSc1nnc(CNC(=O)c2c(F)cccc2F)o1)NCCc1ccccc1	> 15 µM (inactive)
c1ccc(CN2CCN(c3nc4ccccc4c4ccccc34)CC2)cc1	5.26 µM
CN(c1ccccc1)c1nc(N2CCCC2)nc(-n2ccnc2)n1	10.8 µM
